Test results: the NIST ThermoML archive (doi:10.1016/j.jct.2011.01.010)

Test: osmotic coefficient (dimensionless); mn = molality of the nth substance listed, in mol/kg
Conditions: 323.15 K, Liquid, vapor pressure osmometry

CCCCO [butan-1-ol] + COS(=O)(=O)[O-].Cc1ccc[n+](C)c1
Conditions | osmotic coefficient
m1 = 0.0259 | 0.824
m1 = 0.0466 | 0.746
m1 = 0.1056 | 0.668
m1 = 0.2078 | 0.601
m1 = 0.3112 | 0.528
m1 = 0.4005 | 0.501
m1 = 0.5132 | 0.469
m1 = 0.9858 | 0.425
m1 = 1.282 | 0.406
m1 = 1.685 | 0.394
m1 = 2.078 | 0.387
m1 = 2.497 | 0.375
m1 = 2.911 | 0.368

CCCO [propan-1-ol] + COS(=O)(=O)[O-].Cc1ccc[n+](C)c1
Conditions | osmotic coefficient
m1 = 0.0785 | 0.885
m1 = 0.0971 | 0.803
m1 = 0.2088 | 0.711
m1 = 0.3089 | 0.671
m1 = 0.4144 | 0.658
m1 = 0.5126 | 0.642
m1 = 0.8126 | 0.609
m1 = 1.104 | 0.576
m1 = 1.401 | 0.548
m1 = 1.691 | 0.533
m1 = 2.219 | 0.508
m1 = 2.721 | 0.494
m1 = 3.211 | 0.478

CCC(C)O (centres undefined) [butan-2-ol] + COS(=O)(=O)[O-].Cc1ccc[n+](C)c1
Conditions | osmotic coefficient
m1 = 0.0458 | 0.818
m1 = 0.0728 | 0.729
m1 = 0.0933 | 0.696
m1 = 0.2019 | 0.605
m1 = 0.3113 | 0.547
m1 = 0.3991 | 0.512
m1 = 0.4981 | 0.474
m1 = 0.6846 | 0.441
m1 = 0.9815 | 0.408
m1 = 1.285 | 0.383
m1 = 1.687 | 0.361
m1 = 2.105 | 0.345
m1 = 2.501 | 0.333
m1 = 2.914 | 0.327
m1 = 3.291 | 0.32

CC(C)O [propan-2-ol] + COS(=O)(=O)[O-].Cc1ccc[n+](C)c1
Conditions | osmotic coefficient
m1 = 0.072 | 0.969
m1 = 0.1185 | 0.873
m1 = 0.2149 | 0.767
m1 = 0.3087 | 0.699
m1 = 0.408 | 0.654
m1 = 0.5005 | 0.628
m1 = 0.7082 | 0.57
m1 = 1.013 | 0.532
m1 = 1.296 | 0.51
m1 = 1.72 | 0.49
m1 = 2.095 | 0.468
m1 = 2.494 | 0.46
m1 = 2.956 | 0.436
m1 = 3.326 | 0.419

CCCCCO [pentan-1-ol] + COS(=O)(=O)[O-].Cc1ccc[n+](C)c1
Conditions | osmotic coefficient
m1 = 0.0303 | 0.77
m1 = 0.0543 | 0.677
m1 = 0.0875 | 0.618
m1 = 0.1103 | 0.584
m1 = 0.2153 | 0.505
m1 = 0.3078 | 0.464
m1 = 0.412 | 0.425
m1 = 0.5092 | 0.401
m1 = 0.8077 | 0.372
m1 = 1.106 | 0.352
m1 = 1.71 | 0.33
m1 = 2.229 | 0.315
m1 = 2.726 | 0.308
m1 = 3.198 | 0.3
